Entries after “also recorded” stand apart in the source; their conditions may differ.
What was measured:
Format in all cases: physicochemical
[1] = ^225Ac(III) chelation / labeling, iTLC-SG analysis; conditions: pH ~6.5; for chelated Ac-225 (iTLC): free chelator (2 mg/mL 3 μL; ethoxylmethyl isomers 1 mg/mL 1 μL), 30 μCi ^225Ac, 37° C. 2 h; for free Ac-225 at the solvent front of the iTLC-SG / free ^225Ac by iTLC-SG before DTPA challenge: free chelator; for free Ac-225 at the solvent front of the iTLC-SG: low ^225Ac/chelator ratio (30 μCi), room temperature 1-2 hr; for free ^225Ac by iTLC-SG before DTPA challenge: high ^225Ac/chelator ratio (50 μCi), room temperature 1.5-2 hr
[2] = DTPA challenge of ^225Ac complexes, iTLC-SG; conditions: 30 min; for chelated Ac-225 (iTLC) after DTPA: reaction mixture with 10 mM DTPA (pH 6.5); for free Ac-225 at the solvent front of the iTLC-SG after DTPA challenge / free ^225Ac by iTLC-SG after DTPA challenge: free chelator, 10 mM DTPA; for free Ac-225 at the solvent front of the iTLC-SG after DTPA challenge: low ^225Ac/chelator ratio; for free ^225Ac by iTLC-SG after DTPA challenge: high ^225Ac/chelator ratio (50 μCi)
Experimental: DTPA challenge: 0.5 μL of the reaction mixture was mixed with 15 μL of 10 mM DTPA solution and the mixture was incubated for 30 min.
DTPA challenge: 10 μL of fraction #3 collected after PD-10 column was mixed with 15 μL of 10 mM DTPA solution (pH 6.5), and incubated for 30 min.
0.5 μL of reaction mixture was mixed with 15 μL 10 mM DTPA (pH 6.5) and incubated for 30 min.

[3] = Chelation test with Lanthanum (III) (HPLC, LCMS); conditions: La(NO3)3, room temperature
Experimental: HPLC method: XBridge C18 3.5 μm 150×4.6 mm, 100 Å column; Mobile phase A: 0.1% TFA in H2O, B: 0.1% TFA in ACN; gradient 10% to 30% B in 0-20 min, gradient 30% to 100% B in 20-20.1 min, isocratic at 100% B in 20.1-25 min, gradient 100% to 10% B in 25-25.1 min, isocratic at 10% B in 25.1-30 min; postrun 3 min; flow rate 1 mL/min; column temperature 30° C.; injection volume 5 uL. Synthesis and Characterization of H2bp18c6-Benzyl-Phenyl
An aqueous solution of H2bp18c6-benzyl-isopentyl in water (˜3 mg/mL=˜5 mM, 20 μL, 0.1 μmol) was treated with La(NO3)3 (10 mM in metal free water, 50 μL, 0.5 μmol). An aqueous solution of H2bp18c6-benzyl-phenyl in water (˜3 mg/mL=˜5 mM, 20 μL, 0.1 μmol) was treated with La(NO3)3 (10 mM in metal free water, 50 μL, 0.5 μmol). After thorough mixing, each solution was analyzed by LCMS and HPLC to determine whether complexes of the chelator and La^3+ formed.
Complex formation was also confirmed by LCMS.

SMILES | chelated Ac-225 (iTLC) [1] | chelated Ac-225 (iTLC) after DTPA [2] | other results
O=C(O)c1cccc(CN2CCOCCOCCN(Cc3cccc(C(=O)O)n3)CCO[C@@H]3CCC[C@@H]3OCC2)n1 | 99% | 99% | 
O=C(NCCC(=O)N1Cc2ccccc2C#Cc2ccccc21)c1ccc(C(c2cccc(C(=O)O)n2)N2CCOCCOCCN(Cc3cccc(C(=O)O)n3)CCOCCOCC2)cc1 (centres unmarked) [H2bp18c6-benzyl-phenyl-DBCO] |  |  | free Ac-225 at the solvent front of the iTLC-SG [1]: No radioactivity activity was observed at the solvent front; free Ac-225 at the solvent front of the iTLC-SG after DTPA challenge [2]: No radioactivity was detected at the solvent front
O=C(O)c1cccc(CN2CCOCCOCCN(Cc3cccc(C(=O)O)n3)CCO[C@@H]3CCCC[C@H]3OCC2)n1 | 99% | 99% | 
O=C(O)c1cccc(CN2CCOCCOCCN(C(c3ccccc3)c3cccc(C(=O)O)n3)CCOCCOCC2)n1 (centres unmarked) [H2bp18c6-benzyl-phenyl] |  |  | free ^225Ac by iTLC-SG before DTPA challenge [1]: No free ^225Ac was detected; free Ac-225 at the solvent front of the iTLC-SG [1]: No free ^225Ac ion was detected; also recorded: No radioactivity was observed at the solvent front; chelation with La^3+ (shift in HPLC peak retention time) [3]: rapid and stoichiometric chelation; free ^225Ac by iTLC-SG after DTPA challenge [2]: No free ^225Ac was detected; free Ac-225 at the solvent front of the iTLC-SG after DTPA challenge [2]: No free ^225Ac was detected after DTPA challenge
O=C(O)c1cccc(CN2CCOCCOCCN(Cc3cccc(C(=O)O)n3)CCO[C@@H]3CCC[C@H]3OCC2)n1 | 99% | 99% | 
CC(C)CCC(c1cccc(C(=O)O)n1)N1CCOCCOCCN(Cc2cccc(C(=O)O)n2)CCOCCOCC1 (centres unmarked) |  |  | free ^225Ac by iTLC-SG before DTPA challenge [1]: No free ^225Ac was detected; free Ac-225 at the solvent front of the iTLC-SG [1]: No radioactivity was observed at the solvent front; chelation with La^3+ (shift in HPLC peak retention time) [3]: rapid chelation; chelation with La^3+ (shift in HPLC peak retention time) ([3]; listed as isopentane-H2bp18c6): rapid and stoichiometric chelation; free ^225Ac by iTLC-SG after DTPA challenge [2]: No free ^225Ac was detected; free Ac-225 at the solvent front of the iTLC-SG after DTPA challenge [2]: No radioactivity was observed at the solvent front

Now from value to compound, other results behind:

chelated Ac-225 (iTLC) [1] | chelated Ac-225 (iTLC) after DTPA [2] | SMILES | other results
99% | 99% | O=C(O)c1cccc(CN2CCOCCOCCN(Cc3cccc(C(=O)O)n3)CCO[C@H](CO)COCC2)n1 (single isomer, unassigned) [H2bp18c6-off Macrocycle-hydroxylmethyl isomer II] | 
99% | 99% | O=C(O)c1cccc(CN2CCOCCOCCN(Cc3cccc(C(=O)O)n3)CCO[C@@H]3CCCC[C@@H]3OCC2)n1 [H2bp18c6-cis-cyclohexyl-fused Macrocycle] | 
99% | 99% | O=C(O)c1cccc(CN2CCOCCOCCN(Cc3cccc(C(=O)O)n3)CCO[C@@H](CO)COCC2)n1 (single isomer, unassigned) [H2bp18c6-off Macrocycle-hydroxylmethyl isomer I] | 
99% | 99% | CCOC[C@H]1COCCN(Cc2cccc(C(=O)O)n2)CCOCCOCCN(Cc2cccc(C(=O)O)n2)CCO1 (single isomer, unassigned) [H2bp18c6-off Macrocycle-ethoxylmethyl isomer I] | 
99% | 99% | CCOC[C@@H]1COCCN(Cc2cccc(C(=O)O)n2)CCOCCOCCN(Cc2cccc(C(=O)O)n2)CCO1 (single isomer, unassigned) [H2bp18c6-off Macrocycle-ethoxylmethyl isomer II] | 
